Measurements reported in publication PMC5118709, “Identification of Polo-like kinase 1 interaction inhibitors using a novel cell-based assay” (Scientific Reports, 2016).
Values joined by “and” are separate entries in the source; they are usually repeats but may differ in a detail not shown here. Identical values can stand only once.

Key:
CRAF-BRAF = biological target: T1, CRAF-BRAF (Homo sapiens, UniProt P04049+P15056); experiment: control BRET CRAF-BRAF (transient); format: cell-based; conditions: for Primary screen CRAF-BRAF (transient) % Inihibition / Primary screen CRAF-BRAF (transient) % Quench RLuc: 10-25 μM; for Confirmation CRAF-BRAF (transient) % Inihibition / Confirmation CRAF-BRAF (transient) % Quench RLuc: confirmation screen
T1 construct: expressed in transfected cells; host or cells: HEK293T, transient transfection with PEI
T1 sequence (P04049 whole entry): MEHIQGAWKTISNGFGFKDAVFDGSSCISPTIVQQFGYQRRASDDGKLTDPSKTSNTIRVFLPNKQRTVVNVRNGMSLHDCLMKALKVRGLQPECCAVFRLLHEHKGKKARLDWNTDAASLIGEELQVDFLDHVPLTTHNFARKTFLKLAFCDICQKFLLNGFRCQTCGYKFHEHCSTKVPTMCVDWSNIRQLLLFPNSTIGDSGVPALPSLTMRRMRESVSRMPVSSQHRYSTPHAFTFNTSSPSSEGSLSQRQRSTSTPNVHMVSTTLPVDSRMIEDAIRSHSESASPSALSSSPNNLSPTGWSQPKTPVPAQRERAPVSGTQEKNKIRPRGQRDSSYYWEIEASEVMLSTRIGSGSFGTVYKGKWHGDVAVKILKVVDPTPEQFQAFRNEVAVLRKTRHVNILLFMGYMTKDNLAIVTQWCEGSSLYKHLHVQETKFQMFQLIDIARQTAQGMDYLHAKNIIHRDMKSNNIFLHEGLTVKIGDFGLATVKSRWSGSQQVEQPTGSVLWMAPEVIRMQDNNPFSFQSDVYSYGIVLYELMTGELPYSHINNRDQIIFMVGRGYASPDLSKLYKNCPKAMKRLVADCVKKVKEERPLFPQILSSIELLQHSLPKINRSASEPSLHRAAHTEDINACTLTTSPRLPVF
T1 sequence (P15056 whole entry): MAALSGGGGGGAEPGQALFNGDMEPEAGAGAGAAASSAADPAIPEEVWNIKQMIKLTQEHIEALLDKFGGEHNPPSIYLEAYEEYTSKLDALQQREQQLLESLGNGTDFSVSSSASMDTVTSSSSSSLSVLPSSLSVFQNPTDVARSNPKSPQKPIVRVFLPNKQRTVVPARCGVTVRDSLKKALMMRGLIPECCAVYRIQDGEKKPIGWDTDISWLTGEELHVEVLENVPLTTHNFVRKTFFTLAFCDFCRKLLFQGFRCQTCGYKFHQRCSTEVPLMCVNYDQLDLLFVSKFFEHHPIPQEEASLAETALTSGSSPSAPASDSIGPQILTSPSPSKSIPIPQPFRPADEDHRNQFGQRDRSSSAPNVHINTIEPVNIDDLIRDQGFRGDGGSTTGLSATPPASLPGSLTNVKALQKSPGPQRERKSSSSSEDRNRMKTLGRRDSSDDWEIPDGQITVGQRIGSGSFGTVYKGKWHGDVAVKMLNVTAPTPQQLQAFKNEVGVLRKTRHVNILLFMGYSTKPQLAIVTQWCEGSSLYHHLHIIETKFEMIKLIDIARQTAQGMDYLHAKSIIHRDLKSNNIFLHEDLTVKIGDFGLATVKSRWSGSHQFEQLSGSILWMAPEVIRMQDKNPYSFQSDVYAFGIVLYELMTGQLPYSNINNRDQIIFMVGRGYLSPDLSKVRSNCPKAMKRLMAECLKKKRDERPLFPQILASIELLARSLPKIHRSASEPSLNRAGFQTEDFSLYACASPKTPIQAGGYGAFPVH
Description: (§1) We used our cell-based assay to screen a library of 112 983 compounds available in-house at IRIC’s High-Throughput Screening (HTS) platform (see Materials & Methods). Compounds were tested on cells in 384-well plates at concentrations between 10 μM and 25 μM, depending on their concentration in the original stocks solutions. BRET readings were taken 2 hours after treatment. Results obtained show a tight, close to normal distribution centered around zero inhibition relative to DMSO-treated controls (Fig. 1D). Compounds inducing at least 30% BRET inhibition were selected. From these, auto-fluorescent compounds and those that induced more than 90% reduction in RLucII luminescence were removed, leaving 800 primary hits, that we then re-tested using the same assay. In parallel, we tested these compounds in a control BRET assay for an unrelated pair of interacting proteins (BRAF-CRAF[46]) to exclude false-positive compounds that could reduce the BRET signal by interfering with light or by modifying the activity of GFP or Luc.
(§2) For the confirmation screen, the same procedure as for the primary screen was followed, except that HEK293T cells were also seeded at 6.25 millions of cells per simple CellStack on day 1 for transient transfections. These cells were transfected on day 3 with Luc-Map (5 μg) and Plk1-GFP (25 μg) pIRESHyg3 plasmids using polyethylenimine (PEI). To identify false-positives compounds, Luc-CRAF (4 μg) and GFP-BRAF (20 μg) plasmids were also transfected with PEI following the published procedure.

Plk1-Map interaction [1] = biological target: T2, Plk1-Map interaction (Homo sapiens, UniProt P53350); experiment: BRET Plk1-Map, transient Luc-Map/Plk1-GFP in HEK293T; format: cell-based; parameters: cDNAs for the human full length Plk1; expressed in transfected cells; conditions: confirmation screen
T2 sequence (P53350 whole entry): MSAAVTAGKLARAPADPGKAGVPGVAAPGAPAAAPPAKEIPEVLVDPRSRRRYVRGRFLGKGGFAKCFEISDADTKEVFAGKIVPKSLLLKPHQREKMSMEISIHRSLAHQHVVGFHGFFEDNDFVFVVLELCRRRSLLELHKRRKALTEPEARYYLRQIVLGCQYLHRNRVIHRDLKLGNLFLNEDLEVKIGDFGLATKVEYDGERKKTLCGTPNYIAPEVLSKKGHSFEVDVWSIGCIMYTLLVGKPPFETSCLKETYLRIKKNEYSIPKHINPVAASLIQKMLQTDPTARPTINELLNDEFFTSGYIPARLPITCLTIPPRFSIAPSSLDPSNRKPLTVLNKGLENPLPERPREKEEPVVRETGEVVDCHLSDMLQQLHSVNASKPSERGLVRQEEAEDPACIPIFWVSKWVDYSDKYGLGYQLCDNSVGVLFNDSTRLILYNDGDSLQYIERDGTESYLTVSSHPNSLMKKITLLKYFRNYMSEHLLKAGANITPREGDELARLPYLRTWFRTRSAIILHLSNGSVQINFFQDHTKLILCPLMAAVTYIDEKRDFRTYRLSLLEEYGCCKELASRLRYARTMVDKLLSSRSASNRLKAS
Description: as §2

GST-PBD367-603 of Plk1 = GST-PBD367-603 of Plk1 (Homo sapiens, UniProt P53350); experiment: fluorescence polarization assay PBD-phosphopeptide; conditions: for activity in the FP assay: 50 μM
GST-PBD367-603 of Plk1, sequence (P53350 367-603): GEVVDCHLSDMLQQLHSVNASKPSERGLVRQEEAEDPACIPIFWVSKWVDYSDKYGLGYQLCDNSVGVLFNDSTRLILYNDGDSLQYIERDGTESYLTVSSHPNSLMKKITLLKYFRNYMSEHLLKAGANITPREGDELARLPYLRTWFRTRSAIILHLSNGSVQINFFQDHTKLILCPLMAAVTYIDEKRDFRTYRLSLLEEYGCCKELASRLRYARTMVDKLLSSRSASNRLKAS
Description: In this assay, an optimal phosphopeptide for PBD binding is coupled with a FITC fluorophore and its binding to purified recombinant PBD of Plk1 is monitored by the change in polarization of incident light.
The FP buffer was composed of 10 mM Tris pH 8.0, 50 mM NaCl, 1 mM EDTA, 20% glycerol and 0.1% NP-40. The peptide (final concentration 10 nM) was always added to the wells of non-binding, black, 384-well plates, 1 hour after the addition of the protein with the buffer (+/− treatment, 10% DMSO). […] EC65s were used to perform the competitive assays with the non-labeled peptides and with the inhibitors. FP Inhibition was calculated with the formula: 100 − [((mPsample − mPfree peptide)\(mPDMSO − mPfree peptide)) × 100]. […] (Map peptide), and corresponding non-labeled peptides are identical but without FITC in N-terminal. […] Inhibition curves were fitted with GraphPad (Prism software).

Plk1-Map interaction [2] = biological target: T2, Plk1-Map interaction; experiment: LUMIER co-immunoprecipitation assay Plk1-Map; conditions: for Average-Beads (mean luminescence) / Co-IP Values relative to top in plate column = 1 / Luminescence on beads, duplicate wells / effect on the Plk1-Map interaction in co-IP: 10-25 μM, 2 h; for Relative Luminescence Unit: mean divided by maximum mean of the compounds; for Luminescence on beads, duplicate wells: raw data
Description: After cell lysis, GFP-Plk1 was immunoprecipitated and co-purified Map-Luc was measured by luminescence following addition of the luciferase substrate, coelenterazine.
Half a million stably transfected Map205-RLucII/GFP10-Plk1 cells in Tyrode solution were seeded per well in a 96-well plate and allowed to settle for 30 min at 37 °C. […] Plates were then centrifuged at 4 °C at 3000 rpm for 5 minutes to pellet cells. Cells were then lysed with the IP buffer (20 mM Tris pH 7.5, 150 mM NaCl, 2 mM EGTA, 0.5% NP-40, 1 mM DTT, PMSF, aprotinin and leupeptin) and incubated on ice for 20 minutes. Plates were centrifuged again at 4 °C at 3400 rpm for 10 minutes, and the soluble fraction was transferred into a new 96-well plate. Note that 10 μl of this fraction was transferred in white 96-well plates from which the luminescence was read as a measure of the input amount of cell lysate for the co-IP. GFP-Plk1 was immunoprecipitated by adding 0.35 μl of anti-GFP antibody (Invitrogen). Plates were sealed and incubated on a rotator at 4 °C for 30 minutes. Then, 4 μl of pre-washed protein A magnetic beads (Invitrogen) were added to each well. Plates were sealed and incubated at 4 °C for 1h30. The extracts + beads were then transferred in a 96-well PCR plates and beads were washed 3 times with the IP buffer using a magnetic 96-well rack. The fourth wash was done in Tyrode solution, then beads were re-suspended with it and transferred in a white 96-well plate. […] Tyrode was also added to the plates containing the input fraction, then Coelenterazine h was added to the wells, and enhanced luminescence was read as described above.

HeLa cells [3] = experiment: mitotic index assay (phospho-Histone H3) in HeLa cells; format: cell-based; conditions: for Mitotic index (%): 10-25 μM, 7 h; for effect on mitotic index, purchased compounds: 10 μM
Plk1-Map interaction [4] = biological target: T2, Plk1-Map interaction; experiment: BRET Plk1-Map, stable HEK293T Plk1-Luc/GFP-Map cell line; format: cell-based; parameters: cDNAs for the human full length Plk1; expressed in transfected cells; conditions: for Primary screen Plk1-Map (stable) % Inihibition / Primary screen Plk1-Map (stable) % Quench RLuc: 10-25 μM, 2 h; for Confirmation Plk1-Map (stable) % Inihibition / Confirmation Plk1-Map (stable) % Quench RLuc: confirmation screen
From the text: To develop a cell-based assay for the identification of Plk1 interaction inhibitors, we used Bioluminescence Resonance Energy Transfer (BRET)[42][43]. The assay monitors the interaction in HEK293T cells between Plk1 and Map205, a protein that we previously identified as an interactor of Drosophila Polo (Plk1 ortholog) on its PBD[44]. Although no ortholog of Drosophila Map205 has been found in vertebrates, this protein robustly interacts with vertebrate Plk1. […] Importantly, crystallography with zebrafish Plk1 has recently shown that Map205 nevertheless docks in the canonical phosphopeptide binding site of the PBD, with the natural phospho-mimetic Glu314 residue (Fig. 1A)[45]. In our assay, human Plk1 and a fragment of Drosophila Map205 (Map205_254-416 = Map) are respectively fused to Renilla luciferase II (Luc) and GFP10 (GFP), giving rise to energy transfer when the proteins are in close proximity (Fig. 1B). […] All combinations of Plk1 and Map tagged with Luc and GFP were tested (Supplementary Fig. S1). The Plk1-Luc/GFP-Map combination was selected because it yielded the highest BRET dynamic window. We then generated clonal stable cell lines co-expressing these two fusion proteins. These cell lines behaved very similarly to each other in BRET, and we selected one line that gave a high and reproducible BRET signal, with a Z′ score of 0.78, indicative of a robust assay for the purpose of a chemical screen (Supplementary Fig. S1).
as §1
For BRET on transiently transfected cells, 48 hours after the transfection, medium was removed, cells were washed twice with PBS, and then Tyrode solution (140 mM NaCl, 2.7 mM KCl, 12 mM NaHCO3, 5.6 mM D-glucose, 0.49 mM MgCl2, 0.37 mM NaH2PO4, 25 mM HEPES, pH 7.4, where 1 mM CaCl2 was freshly added) was added to the cells. Total fluorescence was first measured using a FlexStation II microplate reader (Molecular Devices), where the GFP10 was excited at 400 nm and read at 510 nm. Then, cells were treated for 5 minutes with 2.5 μM coelenterazine 400a (Gold Technology) before reading BRET2 using the Mithras LB940 microplate reader (Berthold Technologies). BRET2 signal corresponds to the light emitted by the GFP10 acceptor constructs (515 nm ± 20 nm) divided by the light emitted by the RlucII donor constructs (400 nm ± 70 nm). Net BRET2 was calculated by subtracting the background BRET ratio of the RLucII plasmid alone from the BRET ratio obtained by the two BRET partners. The Net BRET2 was plotted according to the GFP10/RLucII ratio, which was obtained by dividing the total fluorescence by the RLucII emission.
For the high throughput chemical screen, cells were amplified and frozen as multiple 1 ml aliquots containing 25 millions of stable HEK293T Plk1-Luc/GFP-Map cells to ensure that cells at the same passage number are used during the screen. […] Five days later, cells were counted and re-suspended in Tyrode solution. […]

HeLa cells [5] = experiment: mitotic defect phenotypes by immunofluorescence; format: cell-based; conditions: 10 μM, 7 h
Description: HeLa cells were treated with these compounds along with the known PBD inhibitors PPG, TQ, Poloxin and the KD inhibitor BI2536 as controls, and then stained against α-Tubulin, pericentrin (a centrosome marker) and DNA (Fig. 2D). In all cases, there was a marked increase in the frequency of disorganized spindles compared with DMSO-treated control cells. This is expected as Plk1 plays multiple roles in spindle assembly and maintenance. […] Cpd 69, an analog of compound 122, induced a similar phenotype at lower concentrations (data not shown). This phenotype was not seen after treatment with BI2536.
For the mitotic defect phenotypes, 25 200 HeLa cells were plated on poly-L-lysine coated round cover slips in 24-well plates. The day after, cells were treated for 7 hours, and then washed with PHEM buffer at 37 °C before fixation in PHEM buffer containing 4% formaldehyde for 20 minutes at 37 °C. Cells were washed three times with TBS-tween 0.1% and plate was kept overnight at 4 °C. Next steps were followed as previously described except that coverslips were incubated in a dark wet chamber with antibodies. Anti-pericentrin (diluted 1:1000; Abcam), anti-α-tubulin DM1A (diluted 1:500; Sigma-Aldrich), Alexa Fluor 488 anti-rabbit and Texas-Red anti-mouse (diluted 1:200; Invitrogen) were used. Coverslips were mounted on slide using Vectashield media containing DAPI (Vector Laboratories).
Images shown in Fig. 2D were acquired on an AxioImager microscope (Carl Zeiss) with a 100x oil objective (NA 1.4 DICIII) and an AxioCam HRM camera (Carl Zeiss) using AxioVision software (Carl Zeiss).

HEK293T cells = experiment: mitotic index assay (phospho-Histone H3) in HEK293T cells
Description: For the mitotic index assay, 4000 HeLa cells or 5000 HEK293T cells per well were seeded in a 96-well plate. The day after, cells were incubated for 7 hours with different compounds, and then fixed by adding formaldehyde (4% final concentration) directly to each well. Plates were incubated 20 minutes at 37 °C, and then wells were rinsed three times with TBS-Tween 0.1%. A 1 hour block with PHEM buffer (60 mM Pipes, 25 mM HEPES, 10 mM EGTA, 4 mM MgSO4, pH 6.9) containing 2% BSA and 0.1% triton was performed, before addition of the primary antibody to the wells. The anti-phospho-Histone H3 (Ser10) antibody (EMD Millipore) was diluted 1:300 in PHEM buffer containing 2% BSA and added to the wells for 2 hours at room temperature in the dark. […] Plates were incubated for 1h 30 at room temperature in the dark, and then wells were washed 3 times with TBS-Tween 0.1%. A solution of Mowiol containing DAPI was finally added to the wells. Plates were kept at 4 °C in the dark until imaging using the 20x objective on an Operetta system (Perkin Elmer inc.). The mitotic index, corresponding to the percentage of pHH3 positive cells relative to the total number of DAPI-stained cells detected was calculated by the Operetta using the Harmony 3.5 software. Experiments were done in triplicates.

[6] = reaction with amino-protected amino acids (LC-MS); conditions: room temperature
Description: Vinyl sulfones are reactive species that can alkylate substrates as a result of a nucleophilic attack on the distal carbon of the vinyl group. To evaluate the potential of Cpd 161 (vinyl sulfone) to react with proteins, we tested its reaction with nucleophilic amino acid side chains groups. […] To test whether Cpd 161 could react covalently with the PBD, we incubated them together and examined the molecular mass of the protein by SDS-PAGE (Fig. 7). […] Consistent with this idea, the extent of the shift depended on the concentration of Cpd 161 used (Fig. 7B) and also on the incubation time (Fig. 7C).
To a stirred solution of electrophile (0.02 mmol) and amino acid (1- 1.5eq) in DMF (0.3 ml) were added a few drops of a diluted aqueous solution of sodium bicarbonate. The reaction was monitored using an Agilent 6120 Quadrupole LC/MS system (Agilent Technologies). In all cases, the molecular ion of the product was observed.

| SMILES | Primary screen CRAF-BRAF (transient) % Inihibition (CRAF-BRAF) | Primary screen CRAF-BRAF (transient) % Quench RLuc (CRAF-BRAF) | Confirmation CRAF-BRAF (transient) % Inihibition (CRAF-BRAF) | Confirmation CRAF-BRAF (transient) % Quench RLuc (CRAF-BRAF) | Confirmation Plk1-Map (transient) % Inihibition (Plk1-Map interaction [1]) | Confirmation Plk1-Map (transient) % Quench RLuc (Plk1-Map interaction [1]) | Average-Beads (mean luminescence) (Plk1-Map interaction [2]) | Co-IP Values relative to top in plate column = 1 (Plk1-Map interaction [2]) | Relative Luminescence Unit (Plk1-Map interaction [2]) | Luminescence on beads, duplicate wells (Plk1-Map interaction [2]) | Mitotic index (%) (HeLa cells [3]) | Primary screen Plk1-Map (stable) % Inihibition (Plk1-Map interaction [4]) | Primary screen Plk1-Map (stable) % Quench RLuc (Plk1-Map interaction [4]) | Confirmation Plk1-Map (stable) % Inihibition (Plk1-Map interaction [4]) | Confirmation Plk1-Map (stable) % Quench RLuc (Plk1-Map interaction [4]) | 2 > pericentrin foci (percentage of cells) (HeLa cells [5]) | Disorganized spindles (percentage of cells) (HeLa cells [5]) | activity in the FP assay (GST-PBD367-603 of Plk1) | effect on the Plk1-Map interaction in co-IP (Plk1-Map interaction [2]) | effect on mitotic index, purchased compounds (HEK293T cells; 10 μM) | also measured |
| --- | --- | --- | --- | --- | --- | --- | --- | --- | --- | --- | --- | --- | --- | --- | --- | --- | --- | --- | --- | --- | --- |
| N#Cc1cccnc1S(=O)(=O)CCOC(=O)c1cccc(Cl)c1 [Cpd 15] | 31.50% | 81.13% | -4.59% | 86.14% | 53.01% | 72.97% | 18,942 | 0.017 | 0.017 | 18,060 and 19,824 | 0.81% | 67.91% | 84.93% | 41.55% | 78.03% | – | – | – | – | – | IC50 (GST-PBD367-603 of Plk1; FP - IC50 (μM), Table S3): 5.7 ± 2.8 µM; IC50 (GST-PBD367-603 of Plk1; IC50 in FP, GST-PBD367-603 38 nM, 1 h pre-incubation, FITC-phosphopeptide 10 nM, Fig. 4C): 6 µM |
| COc1ccc(-c2oc3ccccc3c(=O)c2OS(=O)(=O)c2ccccc2)cc1 [Cpd 46] | 16.40% | 63.54% | 19.45% | 66.12% | -29.25% | 72.57% | 601,974 | 0.219 | 0.219 | 584,340 and 619,608 | 29.44% | 53.18% | 82.37% | 30.35% | 91.04% | – | – | – | – | – | – |
| COc1ccc(-c2oc3ccccc3c(=O)c2OS(=O)(=O)c2cc(OC)ccc2OC)cc1 [Cpd 69] | 18.32% | 72.42% | 7.18% | 67.88% | -0.61% | 62.73% | 281,985 | 0.866 | 0.866 | 232,744 and 331,226 | 30.13% | 77.38% | 86.93% | 49.85% | 91.91% | 2 ± 2% | 100 ± 0% | little or no activity | no effect | significant increase | effect on mitotic index, purchased compounds (HEK293T cells; 1 μM): small increase; effect on mitotic index, purchased compounds (HeLa cells [3]): significant increase |
| COc1ccc(-c2oc3ccccc3c(=O)c2OS(=O)(=O)c2cc(Cl)ccc2Cl)cc1 [Cpd 122] | -8.30% | 44.16% | 3.03% | 35.15% | -1.93% | 25.69% | 1,018,574 | 0.776 | 0.776 | – | – | 44.05% | 86.60% | 30.57% | 79.14% | 65 ± 2% | 85 ± 5% | little or no activity | no effect | significant increase | effect on mitotic index, purchased compounds (HeLa cells [3]): significant increase |
| CC1=CC(=O)C(C(C)C)=C/C1=N\OC(=O)c1ccccc1C [Poloxin] | – | – | – | – | – | – | – | – | – | – | – | – | – | – | – | 27 ± 21% | 61 ± 14% | – | – | – | mitotic index (HeLa cells [3]; 25 μM): around 20%; time to completion of reaction with amino-protected histidine [6]: approximately 10 minutes; time to completion of reaction with amino-protected lysine [6]: approximately 10 minutes |
